Columns and labels:
[1] = biological target: T1, human TRPV1 receptor (hTRPV1) (Homo sapiens, UniProt Q8NER1); assay: Capsaicin activation assay (Ca2+ influx, FLIPR); type: cell-based; conditions: 0.05 μM capsaicin, 1321N1 cells expressing hTRPV1
T1 construct: expressed in transfected cells
Description: Dulbecco's modified Eagle medium (D-MEM) (with 4.5 mg/mL glucose) and fetal bovine serum were obtained from Hyclone Laboratories, Inc. (Logan, Utah). Dulbecco's phosphate-buffered saline (D-PBS) (with 1 mg/mL glucose and 3.6 mg/l Na pyruvate, without phenol red), L-glutamine, hygromycin B, and Lipofectamine® were obtained from Life Technologies (Grand Island, N.Y.). G418 sulfate was obtained from Calbiochem-Novabiochem Corp. (San Diego, Calif.). Capsaicin (8-methyl-N-vanillyl-6-nonenamide) was obtained from Sigma-Aldrich, Co. (St. Louis, Mo.). Fluo-4 AM (N-[4-[6-[(acetyloxy)methoxy]-2,7-difluoro-3-oxo-3H-xanthen-9-yl]-2-[2-[2-[bis[2-[(acetyloxy)methoxy]-2-oxyethyl]amino]-5-methyl-phenoxy]ethoxy]phenyl]-N-[2-[(acetyloxy)methoxy]-2-oxyethyl]-glycine, (acetyloxy)methyl ester) was purchased from Molecular Probes (Eugene, Oreg.).
The cDNAs for the human TRPV1 receptor (hTRPV1) were isolated by reverse transcriptase-polymerase chain reaction (RT-PCR) from human small intestine poly A+RNA supplied by Clontech (Palo Alto, Calif.) using primers designed surrounding the initiation and termination codons identical to the published sequences (Hayes et al. Pain 2000, 88, 205-215). The resulting cDNA PCR products were subcloned into pCIneo mammalian expression vector (Promega) and fully sequenced using fluorescent dye-terminator reagents (Prism, Perkin-Elmer Applied Biosystems Division) and a Perkin-Elmer Applied Biosystems Model 373 DNA sequencer or Model 310 genetic analyzer. Expression plasmids encoding the hTRPV1 cDNA were transfected individually into 1321N1 human astrocytoma cells using Lipofectamine®. Forty-eight hours after transfection, the neomycin-resistant cells were selected with growth medium containing 800 μg/mL Geneticin (Gibco BRL). Surviving individual colonies were isolated and screened for TRPV1 receptor activity. Cells expressing recombinant homomeric TRPV1 receptors were maintained at 37° C. in D-MEM containing 4 mM L-glutamine, 300 μg/mL G418 (Cal-biochem) and 10% fetal bovine serum under a humidified 5% CO2 atmosphere.
The functional activity of compounds at the TRPV1 receptor was determined with a Ca^2+ influx assay and measurement of intracellular Ca^2+ levels ([Ca^2+]i). All compounds were tested over an 11-point half-log concentration range. Compound solutions were prepared in D-PBS (4× final concentration), and diluted serially across 96-well v-bottom tissue culture plates using a Biomek 2000 robotic automation workstation (Beckman-Coulter, Inc., Fullerton, Calif.). A 0.2 μM solution of the TRPV1 agonist capsaicin was also prepared in D-PBS. The fluorescent Ca^2+ chelating dye Fluo-4 AM was used as an indicator of the relative levels of [Ca^2+]i in a 96-well format using a Fluorescence Imaging Plate Reader (FLIPR) (Molecular Devices, Sunnyvale, Calif.). Cells were grown to confluency in 96-well black-walled tissue culture plates. Then, prior to the assay, the cells were loaded with 100 μL per well of Fluo-4 AM (2 μM, in D-PBS) for 1-2 hours at 23° C. Washing of the cells was performed to remove extracellular Fluo-4 AM (2×1 mL D-PBS per well), and afterward, the cells were placed in the reading chamber of the FLIPR instrument. 50 μL of the compound solutions were added to the cells at the 10 second time mark of the experimental run. Then, after a 3-minute time delay, 50 μL of the capsaicin solution was added at the, 190 second time mark (0.05 μM final concentration)(final volume=200 μL) to challenge the TRPV1 receptor. Time length of the experimental run was 240 seconds. Fluorescence readings were made at 1 to 5 second intervals over the course of the experimental run. The peak increase in relative fluorescence units (minus baseline) was calculated from the 190 second time mark to the end of the experimental run, and expressed as a percentage of the 0.05 μM capsaicin (control) response. […]

[2] = Rat telemetry protocol (core body temperature); type: in vivo; conditions: core body temperature of rats at one hour post dosing (100 μmol/kg, p.o.), relative to vehicle
Description: Male, Sprague Dawley rats, 225-250 grams were anesthetized with Sevoflurane (Abbott Laboratories). Rats were placed on a heating pad and covered with a sterile surgical drape. A ventral midline abdominal incision was made and sterile cotton tip applicators were used to gently move internal tissue and expose the abdominal aorta for implantation of the telemetry catheter (Data Sciences International; TL11M2-050-PXT). Blood flow was temporarily stopped to the lower extremities (5-7 min) with Diffenbach clamps to allow the insertion of the telemetry catheter into the abdominal aorta. Once inserted, a sterile cellulose patch was placed over the catheter/aorta and secured using a small amount of tissue adhesive (Vetbond, 3M). Once catheter placement was complete, the clamps were removed and blood flow was restored to the lower extremities. The transmitter was placed in the intraperitoneal cavity. The transmitter suture rib was sewn into the abdominal sutures to secure it in place. The skin was closed using sterile wound clips and the animal removed from Sevoflurane. Buprenex ([…] s.c.; Phoenix) was administered for post-operative analgesia. Animals were maintained on a heating pad until ambulatory, and then individually housed with food and water ad lib. Surgical staples were removed after 7-10 days post-implantation. Rats were allowed a 2-week post-surgical recovery period before treatment with test compound. Oral dosing (p.o.) was at time zero, with rats receiving a single dose of vehicle (10% EtOH, 20% Tween-80, 70% PEG-400) or a 100 μmol/kg dose of compound dissolved in vehicle. Temperature measurements were recorded every 15 minutes for the duration of the study (24 hours).
The term “core body temperature” as used herein, means the temperature measured in the intraperitoneal cavity.

T1 sequence (Q8NER1 whole entry): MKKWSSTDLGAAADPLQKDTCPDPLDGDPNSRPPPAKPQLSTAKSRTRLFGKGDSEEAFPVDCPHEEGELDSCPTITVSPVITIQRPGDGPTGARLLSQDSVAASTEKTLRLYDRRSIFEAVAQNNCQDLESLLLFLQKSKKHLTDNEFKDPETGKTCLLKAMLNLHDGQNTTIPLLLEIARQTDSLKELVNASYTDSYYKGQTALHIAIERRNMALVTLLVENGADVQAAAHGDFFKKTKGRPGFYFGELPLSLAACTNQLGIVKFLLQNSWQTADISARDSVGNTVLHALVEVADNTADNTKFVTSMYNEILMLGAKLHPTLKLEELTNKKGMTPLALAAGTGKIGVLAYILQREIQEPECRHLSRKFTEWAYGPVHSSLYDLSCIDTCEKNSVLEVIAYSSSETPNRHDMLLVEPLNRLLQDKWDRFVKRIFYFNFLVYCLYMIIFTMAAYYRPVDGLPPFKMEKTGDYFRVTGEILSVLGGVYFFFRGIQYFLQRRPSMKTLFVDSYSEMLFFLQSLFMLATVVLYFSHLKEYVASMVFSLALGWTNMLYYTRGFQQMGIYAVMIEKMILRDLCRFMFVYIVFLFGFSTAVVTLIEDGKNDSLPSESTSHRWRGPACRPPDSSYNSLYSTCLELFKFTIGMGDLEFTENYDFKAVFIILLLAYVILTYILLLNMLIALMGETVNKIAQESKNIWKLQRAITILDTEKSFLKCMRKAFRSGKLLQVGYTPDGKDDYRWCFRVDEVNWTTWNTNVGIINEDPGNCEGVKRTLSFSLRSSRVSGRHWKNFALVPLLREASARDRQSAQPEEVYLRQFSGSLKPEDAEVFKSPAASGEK

Compound	IC50 [1] [µM]	Δ Temp [2] [°C]
Cn1ncc2c(NC(=O)N[C@@H]3CC(C)(C)Oc4ccc(F)cc43)cccc21 [Example 1, N-[(4R)-6-fluoro-2,2-dimethyl-3,4-dihydro-2H-chromen-4-yl]-N′-(1-methyl-1H-indazol-4-yl)urea]	0.229	0.5
CC1(C)C[C@@H](NC(=O)Nc2cccc3c2C[C@@H](O)CC3)c2cc(F)ccc2O1 [Example 3, N-[(4R)-6-fluoro-2,2-dimethyl-3,4-dihydro-2H-chromen-4-yl]-N′-[(7S)-7-hydroxy-5,6,7,8-tetrahydronaphthalen-1-yl]urea]	0.032	0.6
CC1(C)C[C@@H](NC(=O)Nc2cccc3c2C[C@H](O)CC3)c2cc(F)ccc2O1 [Example 4, N-[(4R)-6-fluoro-2,2-dimethyl-3,4-dihydro-2H-chromen-4-yl]-N′-[(7R)-7-hydroxy-5,6,7,8-tetrahydronaphthalen-1-yl]urea]	0.03	0.6
O=C(Nc1cccc2c1C[C@@H](O)CC2)N[C@@H]1CC2(CCC2)Oc2ccc(F)cc21 [Example 9, N-[(4R)-6-fluoro-3,3′,4,4′-tetrahydro-2′H-spiro[chromene-2,1′-cyclobutan]-4-yl]-N′-[(7S)-7-hydroxy-5,6,7,8-tetrahydronaphthalen-1-yl]urea]	0.028	0.9
CC1(C)C[C@@H](NC(=O)Nc2cccc3c2C[C@H](O)CC3)c2cc(F)cc(F)c2O1 [Example 18, N-[(4R)-6,8-difluoro-2,2-dimethyl-3,4-dihydro-2H-chromen-4-yl]-N′-[(7R)-7-hydroxy-5,6,7,8-tetrahydronaphthalen-1-yl]urea]	0.029	1.4
Cn1ncc2c(NC(=O)N[C@@H]3CC(C)(C)Oc4cc(F)ccc43)cccc21 [Example 24, N-[(4R)-7-fluoro-2,2-dimethyl-3,4-dihydro-2H-chromen-4-yl]-N′-(1-methyl-1H-indazol-4-yl)urea]	0.052	1.3
CC1(C)C[C@@H](NC(=O)Nc2cccc3[nH]ncc23)c2ccc(F)cc2O1 [Example 29, N-[(4R)-7-fluoro-2,2-dimethyl-3,4-dihydro-2H-chromen-4-yl]-N′-1H-indazol-4-ylurea]	0.013	1.2
Cn1ncc2c(NC(=O)N[C@@H]3CC(C)(C)Oc4cc(C(F)(F)F)ccc43)cccc21 [Example 33, N-[(4R)-2,2-dimethyl-7-(trifluoromethyl)-3,4-dihydro-2H-chromen-4-yl]-N′-(1-methyl-1H-indazol-4-yl)urea]	0.014	1.4
CC1(C)C[C@@H](NC(=O)Nc2cccc3c2C[C@H](O)CC3)c2ccccc2O1 [Example 36, N-[(4R)-2,2-dimethyl-3,4-dihydro-2H-chromen-4-yl]-N′-[(7R)-7-hydroxy-5,6,7,8-tetrahydronaphthalen-1-yl]urea]	0.033	0.7
Cn1ncc2c(NC(=O)N[C@@H]3CC(C)(C)Oc4cc(OC(F)(F)F)ccc43)cccc21 [Example 39, N-[(4R)-2,2-dimethyl-7-(trifluoromethoxy)-3,4-dihydro-2H-chromen-4-yl]-N′-(1-methyl-1H-indazol-4-yl)urea]	0.025	0.7
CC1(C)C[C@@H](NC(=O)Nc2cccc3cnccc23)c2ccc(OC(F)(F)F)cc2O1 [Example 40, N-[(4R)-2,2-dimethyl-7-(trifluoromethoxy)-3,4-dihydro-2H-chromen-4-yl]-N′-isoquinolin-5-ylurea]	0.005	0.8
Cn1ncc2c(NC(=O)N[C@@H]3CC(C)(C)Oc4c3cccc4C(F)(F)F)cccc21 [Example 42, N-[(4R)-2,2-dimethyl-8-(trifluoromethyl)-3,4-dihydro-2H-chromen-4-yl]-N′-(1-methyl-1H-indazol-4-yl)urea]	0.02	0.6
CC1(C)C[C@@H](NC(=O)Nc2cccc3ccncc23)c2ccc(C(F)(F)F)cc2O1 [Example 43, N-[(4R)-2,2-dimethyl-7-(trifluoromethyl)-3,4-dihydro-2H-chromen-4-yl]-N′-isoquinolin-8-ylurea]	0.028	1.5
CC1(C)C[C@@H](NC(=O)Nc2cccc3[nH]ncc23)c2cccc(C(F)(F)F)c2O1 [Example 45, N-[(4R)-2,2-dimethyl-8-(trifluoromethyl)-3,4-dihydro-2H-chromen-4-yl]-N′-1H-indazol-4-ylurea]	0.011	0.5
CCC1(CC)C[C@@H](NC(=O)Nc2cccc3c2cnn3C)c2ccc(F)cc2O1 [Example 46, N-[(4R)-2,2-diethyl-7-fluoro-3,4-dihydro-2H-chromen-4-yl]-N′-(1-methyl-1H-indazol-4-yl)urea]	0.017	0.7
CCC1(CC)C[C@@H](NC(=O)Nc2cccc3c2cnn3C)c2ccc(C(F)(F)F)cc2O1 [Example 49, N-[(4R)-2,2-diethyl-7-(trifluoromethyl)-3,4-dihydro-2H-chromen-4-yl]-N′-(1-methyl-1H-indazol-4-yl)urea]	0.071	1.3
CCC1(CC)C[C@@H](NC(=O)Nc2cccc3c2C[C@H](O)CC3)c2cccc(F)c2O1 [Example 52, N-[(4R)-2,2-diethyl-8-fluoro-3,4-dihydro-2H-chromen-4-yl]-N′-[(7R)-7-hydroxy-5,6,7,8-tetrahydronaphthalen-1-yl]urea]	0.02	1.2
CCC1(CC)C[C@@H](NC(=O)Nc2cccc3c2C[C@H](O)CC3)c2cc(F)ccc2O1 [Example 54, N-[(4R)-2,2-diethyl-6-fluoro-3,4-dihydro-2H-chromen-4-yl]-N′-[(7R)-7-hydroxy-5,6,7,8-tetrahydronaphthalen-1-yl]urea]	0.038	1.0
Cn1ncc2c(NC(=O)N[C@@H]3CCOc4c3cccc4C(F)(F)F)cccc21 [Example 59, N-(1-methyl-1H-indazol-4-yl)-N′-[(4R)-8-(trifluoromethyl)-3,4-dihydro-2H-chromen-4-yl]urea]	0.016	0.5
N-[(2R,4R)-2-(fluoromethyl)-2-methyl-7-(trifluoromethyl)-3,4-dihydro-2H-chromen-4-yl]-N-(3-methylisoquinolin-5-yl)urea [Example 127]	0.025	–
N-[(4R)-2,2-diethyl-8-fluoro-3,4-dihydro-2H-chromen-4-yl]-N-isoquinolin-8-ylurea [Example 83]	0.021	–
